Test results from patent US6399590B2, “Phosphoglycolipid and methods for its use” (Corixa Corporation, priority 1998, dated 2002).

Assays:
[1] = tested on: rabbit model of regional myocardial ischemia; test: Infarct size in rabbits, 30 min coronary occlusion and 3 h reperfusion; type: in vivo, New Zealand white rabbits
Experimental: Male New Zealand white rabbits weighing 2.5-3.5 kg were injected with vehicle or L34 24 h before the experiment. L34 was formulated in vehicle composed of 40% propylene glycol, 10% ethanol in water. For the experiment, animals were intramuscularly anesthetized with ketamine (35 mg/kg) and xylazine (5 mg/kg). Tracheotomy was performed and the animals intubated with a cuffed endotracheal tube (Portex, 4.0 mm internal diameter) and then mechanically ventilated with room air on a positive pressure respirator Q Industries, Mobile, Ala.). Ventilatory rate was 27-35 breaths per min, and tidal volume was approximately 10-17 ml. […] The EKG was recorded throughout the experiment via lead II of the standard elctrocardiogram. […]
At the end of each experiment, the ligature around the large marginal branch of the circumflex artery was retightened to reocclude the artery and approximately 4 ml of 10% Evans blue dye was injected into the jugular vein until the eyes turned blue. […] The area at risk was determined by negative staining and calculated as a percentage of the portion of left ventricle containing the risk area (AAR/LV %) and infarct size as a percentage of area at risk (IS/AAR %). […] Regions of infarcted tissue and the risk zone were determined by computer morphometry using Bioquant imaging software and the percentage of infarcted area and risk area calculated.

[2] = tested on: Adult mongrel dogs, left anterior descending coronary artery (LAD) occlusion/reperfusion; test: Infarct size in the dog, 60 min LAD occlusion and 3 h reperfusion; type: in vivo; conditions: L34 35 μg/kg 24 h before occlusion + aminoguanidine (AG) 30 mg/kg s.c. 60 min before occlusion; mean ± SEM; 30 mg/kg
Experimental: Adult mongrel dogs of either sex, weighing 19.0-30.0 kg were fasted overnight, anaesthetized with intravenous sodium barbital (200 mg/kg) and sodium pentobarbital (15 mg/kg), and ventilated with room air supplemented with 100% oxygen at an end expiratory pressure of 5-7 cm H2O to prevent atelectasis. Arterial blood pH PO2 and PCO2 were monitored at selected intervals by an automatic blood gas system and maintained within a normal physiological range (pH 7.35-7.45, PO2 10.6-16.0 kPa, PCO2 3,3-4.7 kPa) by adjusting the respiratory rate and oxygen flow and by an infusion of 1.5% sodium bicarbonate when necessary. Body temperature was maintained at 38±1° C. by using a heating pad.
A double pressure-transducer-tipped catheter was inserted into the aorta and left ventricle via the left carotid artery for measurements of aortic and left ventricular pressure. Left ventricular dP/dt was determined by electronic differentiation of the left ventricular pressure pulse.
A left thoracotomy was performed at the fifth intercostal space. The lung was retracted, the pericardium incised, and the heart suspended in a cradle. A 10-15 mm segment of the left anterior descending coronary artery (LAD) was dissected from surrounding tissue. […]
Regional myocardial blood flow was measured by the radioactive microsphere technique. […]

SMILES: CCCCCCCCCCCCCCCCCC(=O)O[C@H](CCCCCCCCCCC)CC(=O)N[C@H]1[C@H](OC[C@H]2OC(O)[C@H](NC(=O)C[C@@H](CCCCCCCCCCC)OC(=O)CCCCCCCCCCCCCCC)[C@@H](O)[C@@H]2O)O[C@H](CO)[C@@H](OP(=O)(O)O)[C@@H]1OC(=O)C[C@@H](CCCCCCCCCCC)OC(=O)CCCCCCCCCCCCC (stereo partly drawn) [L34, 2-Deoxy-6-O-[2-deoxy-4-O-phosphono-3-O-[(R)-3-tetradecanoyloxytetradecanoyl]-2-[(R)-3-octadecanoyloxytetradecanoylamino]-β-D-glucopyranosyl]-2-[(R)-3-hexadecanoyloxytetradecanoylamino]-D-glucopyranose]
- reduction in infarct size (percentage of area at risk) compared to controls ([1]; 35 μg/kg given 24 h before ischemia, FIG. 1): approximately 70%
- reduction in infarct size, dose response ([1]; doses of 10 to 35 μg/kg given 24 h before ischemia, FIG. 2): > 50%
- IS/AAR(%) (infarct size / area at risk) [2]: 25.2±2.7%
